The results in this text go back to ChEMBL document CHEMBL1201862, “PubChem BioAssay data set” (2004).

Common to all, as to experiment: NCI tumour cell line growth inhibition, 48 h
In test [1] the test system is K562.
The test system of test [2] is MDA-MB-435.
Test [3] has as its system HT-29.
Test [4] has as its system SF-268.
Test [5] deals with UACC-257.
The test system of test [6] is SK-MEL-2.
The subject of test [7] is RXF 393.
Test [8] concerns SW-620.
The subject of test [9] is HCT-116.
In test [10] the test system is LOX IMVI.
The subject of test [11] is DU-145.
The test system of test [12] is IGROV-1.
In test [13] the test system is ACHN.
The test system of test [14] is NCI/ADR-RES.
Test [15] concerns T47D.
Test [16] has as its system MDA-MB-231.
Test [17] has as its system SNB-19.
Test [18] relates to SNB-75.
In test [19] the test system is Hs-578T.

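Cultured in 96-well plates, cells were exposed to test compound for 48 hours across five concentrations. GI50 is the concentration that inhibits growth by half.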 Active and inactive are the calls of the source. No stated cut-off is given here; in the data, active = GI50 up to about 1.1 µM and inactive = higher.

With `O=C1/C(=C/c2ccccc2)N=C(c2ccccc2)N1C1Nc2cc3c(cc2S1)NC(N1C(=O)/C(=C/c2ccccc2)N=C1c1ccccc1)S3` (centres undefined), the GI50 in test [1] is 10 µM (inactive); in test [2], 13.6 µM (inactive); in test [3], 5.01 µM (inactive); in [4] it was 5.61 µM (inactive); in test [5], 3.78 µM (inactive); in test [6], 23.6 µM (inactive). Besides, the GI50 in test [7] is 18.4 µM (inactive); in test [8], 3.8 µM (inactive); in test [9] it was 32.5 µM (inactive); in [10] it was 3.74 µM (inactive); in test [11], 46.6 µM (inactive); in test [12], 6.98 µM (inactive). Moreover, the GI50 was 29.5 µM (inactive) in test [13], 44.6 µM (inactive) in [14], 30.4 µM (inactive) in test [15] and 1.82 µM (inactive) in [16].

Turning to `Cc1ccc(CC(C)N)cc1` (centres undefined), the GI50 in test [1], in [3], in [4], in test [5], in test [6] and in test [17] was > 100 µM (inactive) each time. Further, the GI50 in [7], in test [8], in [18], in [9], in test [10] and in test [12] was > 100 µM (inactive) throughout. Further, the GI50 in test [13] was > 100 µM (inactive).

In the case of `CN(Cc1ccccc1)C1(N(C)Cc2ccccc2)CC1`, the GI50 in [1], in [3], in [4], in test [5], in test [6] and in [17] was > 100 µM (inactive) throughout. Besides, the GI50 in test [7], in test [8], in test [18], in test [9], in test [10] and in test [12] was > 100 µM (inactive) each time. Further, in test [13], the GI50 was > 100 µM (inactive).

Turning to `CC(C)(c1ccc(Oc2ccc(C#N)c(C#N)c2)cc1)c1ccc(Oc2ccc(C#N)c(C#N)c2)cc1`, the GI50 in test [1], in test [3], in test [4], in test [5], in test [6] and in [17] was > 10 µM (inactive) in each case. For the same compound, the GI50 was > 10 µM (inactive) in [7]; > 100 µM (inactive) in test [8]; 1.78 µM (inactive) in test [18]; > 10 µM (inactive) in [9]; > 10 µM (inactive) in test [10]; > 10 µM (inactive) in [12]. The GI50 in test [13] was > 10 µM (inactive).

As for `CC(C)N(C(=O)C12CC3CC(CC(C3)C1)C2)C(C)C`, the GI50 in test [1], in test [3], in test [4], in test [5], in test [6] and in [17] was > 50 µM (inactive) each time. The GI50 in [7], in [8], in [18], in test [9], in [10] and in [12] was > 50 µM (inactive) each time. The GI50 in test [13] was > 50 µM (inactive).

For `CC/C(CC(=O)CCC(=O)Nc1ccccc1[N+](=O)[O-])=N/NC(=O)C[n+]1ccccc1`, the GI50 in [1], in [3], in test [4], in test [5], in [6] and in test [17] was > 100 µM (inactive) in each case. The GI50 in [7], in [8], in test [18], in test [9], in [10] and in test [12] was > 100 µM (inactive) throughout. Moreover, the GI50 in test [13] is > 100 µM (inactive).

In the case of `CC(C)(C)c1cc([Si](C)(C)C)c(C#N)c([Si](C)(C)C)c1`, the GI50 in [1] is > 100 µM (inactive); in test [3], 76.7 µM (inactive); in test [4], 41.7 µM (inactive); in test [5] it was 34.3 µM (inactive); in test [6], > 100 µM (inactive); in [17] it was 62.1 µM (inactive). Besides, the GI50 is 36.6 µM (inactive) in test [7]; > 100 µM (inactive) in test [8]; 47.3 µM (inactive) in test [18]; 54.8 µM (inactive) in test [9]; 78.5 µM (inactive) in test [10]; > 100 µM (inactive) in [12]. Further, the GI50 in test [13] was 87.3 µM (inactive).

As for `COc1cc([C@@H]2c3cc4c(cc3[C@@H](NC(=O)c3cccc(C#N)c3)C3COC(=O)[C@@H]32)OCO4)cc(OC)c1O` (some centres undefined), the GI50 in test [1] is 1.73 µM (inactive); in test [3], 1.85 µM (inactive); in test [4], 1.32 µM (inactive); in test [5], 6.17 µM (inactive); in test [6], 3.55 µM (inactive); in test [17], 0.404 µM (active). For the same compound, the GI50 is 3.18 µM (inactive) in [7]; 0.583 µM (active) in test [8]; 0.433 µM (active) in test [18]; 1.1 µM (active) in [9]; 0.398 µM (active) in test [10]; 1.05 µM (active) in [12]. The GI50 in [13] was 0.182 µM (active).

Take `Cc1ccc(Cn2c(C)nc3c2C(=O)c2ccccc2C3=O)cc1`: the GI50 in [1] was 0.834 µM (active); in test [3], 1.27 µM (inactive); in test [4], 3.43 µM (inactive); in test [5], 11.7 µM (inactive); in test [6], 15.3 µM (inactive); in [17], 11.6 µM (inactive). Also, the GI50 is 11.4 µM (inactive) in test [7]; 3.33 µM (inactive) in test [8]; 13.9 µM (inactive) in test [18]; 0.755 µM (active) in test [9]; 0.597 µM (active) in test [10]; 5.45 µM (inactive) in [12]. Further, the GI50 in test [13] is 6.22 µM (inactive).

In the case of `O=C1N[C@@H](COc2ccc(/C=N/c3ccc(CCc4ccc(/N=C/c5ccc(OC[C@@H]6COC(=O)N6)cc5)cc4)cc3)cc2)CO1`, the GI50 in [1], in test [2], in test [3], in test [4], in test [5] and in [6] was > 100 µM (inactive) throughout. For the same compound, the GI50 in [17], in test [7], in test [8], in [9], in test [10] and in test [19] was > 100 µM (inactive) each time. The GI50 in test [11], in test [12], in test [13], in test [14], in test [15] and in test [16] was > 100 µM (inactive) each time.

Regarding `CC1=CP(=O)(OC(C)C)C=C(C)C1=C(Cl)Cl` (centres undefined), the GI50 was 42 µM (inactive) in test [1]; 45.6 µM (inactive) in test [3]; > 100 µM (inactive) in test [4]; 32.2 µM (inactive) in test [5]; 20.3 µM (inactive) in test [6]; > 100 µM (inactive) in [17]. Moreover, the GI50 in test [7] is 66.2 µM (inactive); in test [8] it was 44 µM (inactive); in test [18], > 100 µM (inactive); in test [9], 24.9 µM (inactive); in test [10], 57 µM (inactive); in test [12], > 100 µM (inactive). The GI50 in [13] is 47.1 µM (inactive).

Take `Cc1ccc(/C(=C/C=C(C#N)C#N)Sc2cc(Cl)ccc2Cl)cc1`: the GI50 was 2.43 µM (inactive) in test [2]; 3.81 µM (inactive) in test [3]; 5.97 µM (inactive) in test [4]; 2.78 µM (inactive) in [5]; 8.75 µM (inactive) in test [6]; 5.97 µM (inactive) in test [17]. Moreover, the GI50 was 7.29 µM (inactive) in test [7]; 1.66 µM (inactive) in test [8]; 17 µM (inactive) in test [18]; 0.83 µM (active) in test [9]; 1.01 µM (active) in test [10]; 2.42 µM (inactive) in test [19]. Further, the GI50 in test [11] was 3.4 µM (inactive); in test [12], 8.41 µM (inactive); in test [13], 2.7 µM (inactive); in test [14] it was 2.42 µM (inactive); in test [15], 12.9 µM (inactive); in test [16] it was 3.18 µM (inactive).

Consider `COc1ccccc1-n1c(C)nc2ccccc2c1=O`, for which the GI50 in [1], in [3], in test [4], in [5], in test [6] and in test [17] was > 100 µM (inactive) in each case. Besides, the GI50 in test [7], in [8], in test [18], in [9], in [10] and in [12] was > 100 µM (inactive) in each case. In addition, the GI50 in test [13] is > 100 µM (inactive).

Regarding `NC(=O)c1cc(N(CCO)CCO)c([N+](=O)[O-])cc1[N+](=O)[O-]`, the GI50 in [1], in [2], in test [3], in test [4], in [5] and in test [6] was > 100 µM (inactive) in each case. Also, the GI50 in test [17], in test [7], in [8], in [9], in test [10] and in [19] was > 100 µM (inactive) in each case. Moreover, the GI50 in test [11], in test [12], in test [13], in test [14] and in test [15] was > 100 µM (inactive) each time.
